Earlier results in patent US6300501A, “Histidine-(N-benzyl glycinamide) inhibitors of protein farnesyl transferase” (Warner-Lambert Company, priority 1998, dated 2001).

Key:
[1] = system: human lung carcinoma with K-ras mutation and p53 deletion; details: nude mice; cited from earlier work
[2] = system: mammary and salivary carcinomas; details: daily administration; cited from earlier work

CSCC[C@H](NC(=O)c1ccc(NC[C@@H](N)CS)cc1-c1ccccc1)C(=O)O [FTI276]
tumor growth [1]: selectively block tumor growth

CC[C@H](C)[C@@H](CO[C@@H](Cc1ccccc1)C(=O)N[C@@H](CCS(C)(=O)=O)C(=O)OC(C)C)NC[C@@H](N)CS [L-744,832]
tumor regression [2]: caused tumor regression
